Results published in ChEMBL document CHEMBL5352437, “Identification and immunological evaluation of novel TLR2 agonists through structural optimization of Diprovocim” (Eur J Med Chem, 2022).
Values belong to the molecule of their own block, whether it stands above or below them. Active and inactive are the calls of the source. The rule behind the calls is not given here.

How the values were obtained:
[1] = Cytotoxicity against human HEK-Blue hTLR2 cells assessed as reduction in cell viability at 100 uM incubated for 24 hrs by CCK8 assay; assay type: toxicity, cell-based; settings: hek-blue htlr2, 24 h
[2] = tested on: THP-1; assay: Induction of TNFalpha production in human PMA-differentiated THP-1 cells supernatant incubated for 4 hrs by ELISA method; assay type: functional, cell-based
[3] = tested on: THP-1; assay: Cytotoxicity against human THP1 cells assessed as reduction in cell viability at 100 uM incubated for 24 hrs by CCK8 assay; assay type: toxicity, cell-based; settings: thp-1, 24 h
[4] = tested on: THP-1; assay: Induction of p65 phosphorylation in human PMA-differentiated THP-1 cells at 100 nM incubated up to 120 mins by Western blotting analysis; assay type: functional, cell-based
[5] = molecular target: T1, Toll-like receptor 2 (Homo sapiens, UniProt O60603); assay: Agonist activity at human TLR2 expressed in HEK-Blue hTLR2 cells as SEAP expression incubated for 16 hrs by SEAP-based plate reader analysis; assay type: cell-based
T1 sequence (O60603 whole entry): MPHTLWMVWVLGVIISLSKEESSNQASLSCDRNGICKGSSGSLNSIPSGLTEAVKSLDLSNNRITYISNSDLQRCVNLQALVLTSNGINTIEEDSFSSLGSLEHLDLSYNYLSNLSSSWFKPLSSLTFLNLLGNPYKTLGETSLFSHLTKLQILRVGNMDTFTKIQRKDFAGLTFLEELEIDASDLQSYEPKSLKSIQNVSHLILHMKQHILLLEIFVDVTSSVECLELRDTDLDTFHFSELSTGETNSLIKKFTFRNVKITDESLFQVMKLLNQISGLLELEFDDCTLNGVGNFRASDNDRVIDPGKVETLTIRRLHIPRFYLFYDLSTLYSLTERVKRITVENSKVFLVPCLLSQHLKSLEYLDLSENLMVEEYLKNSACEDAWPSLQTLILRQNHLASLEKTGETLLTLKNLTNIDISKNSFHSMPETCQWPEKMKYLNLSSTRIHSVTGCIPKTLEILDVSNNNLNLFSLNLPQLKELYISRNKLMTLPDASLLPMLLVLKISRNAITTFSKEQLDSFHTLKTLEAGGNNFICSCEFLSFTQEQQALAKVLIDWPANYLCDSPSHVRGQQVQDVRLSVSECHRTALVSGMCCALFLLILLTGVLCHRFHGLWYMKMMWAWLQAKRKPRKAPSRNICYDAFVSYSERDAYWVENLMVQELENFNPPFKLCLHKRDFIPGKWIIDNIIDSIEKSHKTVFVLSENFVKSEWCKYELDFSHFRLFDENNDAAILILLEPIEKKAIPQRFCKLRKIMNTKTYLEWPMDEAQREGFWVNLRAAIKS

[6] = tested on: THP-1; assay: Induction of IL1beta production in human PMA-differentiated THP-1 cells supernatant incubated for 4 hrs by ELISA method; assay type: functional, cell-based
[7] = tested on: THP-1; assay: Induction of IL6 production in human PMA-differentiated THP-1 cells supernatant incubated for 4 hrs by ELISA method; assay type: functional, cell-based
[8] = tested on: THP-1; assay: Induction of JNK phosphorylation in human PMA-differentiated THP-1 cells at 100 nM incubated up to 120 mins by Western blotting analysis; assay type: functional, cell-based
[9] = molecular target: T1, Toll-like receptor 2; assay: Agonist activity at human TLR2 expressed in HEK-Blue hTLR2 cells assessed as activation of TLR2-triggered SEAP signaling up to 10 uM incubated for 16 hrs by SEAP-based plate reader analysis; assay type: cell-based; settings: filed as agonist
[10] = molecular target: T1, Toll-like receptor 2; assay: Agonist activity at human TLR2 expressed in HEK-Blue hTLR2 cells assessed as activation of TLR2-triggered SEAP signaling at 0.1 uM incubated for 16 hrs in presence of anti-hTLR1 by SEAP-based plate reader analysis; assay type: cell-based
[11] = molecular target: T1, Toll-like receptor 2; assay: Agonist activity at human TLR2 expressed in HEK-Blue hTLR2 cells assessed as activation of TLR2-triggered SEAP signaling at 0.1 uM incubated for 16 hrs in presence of anti-hTLR2 by SEAP-based plate reader analysis; assay type: cell-based
[12] = tested on: THP-1; assay: Induction of p38 phosphorylation in human PMA-differentiated THP-1 cells at 100 nM incubated up to 120 mins by Western blotting analysis; assay type: functional, cell-based
[13] = tested on: THP-1; assay: Upregulation of MyD88 protein expression in human PMA-differentiated THP-1 cells at 100 nM by Western blotting analysis; assay type: functional, cell-based; settings: time 0-120 min, TDE = time-dependent effect

EC50 [5]: 0.035 µM
Activity [9]: Active
Activity [10]: inactive
Activity [11]: inactive
SMILES: CCCC[C@H]1CN(C(=O)c2ccc(C(=O)N3C[C@@H](C(=O)N[C@H]4C[C@@H]4c4ccccc4)[C@H](C(=O)N[C@H]4C[C@@H]4c4ccccc4)C3)cc2)C[C@@H]1C(=O)N[C@H]1C[C@@H]1c1ccccc1
Activity [1]: Non-Toxic
Activity [2]: Dose-Dependent Effect
Activity [3]: Non-Toxic
Activity [4]: Active
Activity [6]: Dose-Dependent Effect
Activity [7]: Dose-Dependent Effect
Activity [8]: Active
Activity [12]: Active
Activity [13]: Tde

EC50 [5]: 0.7 µM
SMILES: CC1CN(C(=O)c2ccc(C(=O)N3C[C@@H](C(=O)N[C@H]4C[C@@H]4c4ccccc4)[C@H](C(=O)N[C@H]4C[C@@H]4c4ccccc4)C3)cc2)CC1C(=O)N[C@H]1C[C@@H]1c1ccccc1 (stereo not given in full)

EC50 [5]: 0.286 µM
SMILES: CC(C)CC1CN(C(=O)c2ccc(C(=O)N3C[C@@H](C(=O)N[C@H]4C[C@@H]4c4ccccc4)[C@H](C(=O)N[C@H]4C[C@@H]4c4ccccc4)C3)cc2)CC1C(=O)N[C@H]1C[C@@H]1c1ccccc1 (stereo not given in full)

EC50 [5]: > 5 µM
SMILES: O=C(N[C@H]1C[C@@H]1c1ccccc1)C1CCN(C(=O)c2ccc(C(=O)N3C[C@@H](C(=O)N[C@H]4C[C@@H]4c4ccccc4)[C@H](C(=O)N[C@H]4C[C@@H]4c4ccccc4)C3)cc2)CC1

EC50 [5]: > 5 µM
SMILES: CC(C)CC1CN(C(=O)c2ccc(C(=O)N3CC(CC(C)C)[C@H](C(=O)N[C@H]4C[C@@H]4c4ccccc4)C3)cc2)CC1C(=O)N[C@H]1C[C@@H]1c1ccccc1 (stereo not given in full)

EC50 [5]: 0.087 µM
SMILES: CCC[C@H]1CN(C(=O)c2ccc(C(=O)N3C[C@@H](C(=O)N[C@H]4C[C@@H]4c4ccccc4)[C@H](C(=O)N[C@H]4C[C@@H]4c4ccccc4)C3)cc2)C[C@@H]1C(=O)N[C@H]1C[C@@H]1c1ccccc1

EC50 [5]: > 5 µM
SMILES: CC1CN(C(=O)c2ccc(C(=O)N3CC(C)[C@H](C(=O)N[C@H]4C[C@@H]4c4ccccc4)C3)cc2)CC1C(=O)N[C@H]1C[C@@H]1c1ccccc1 (stereo not given in full)

EC50 [5]: 1.5 µM
SMILES: CCCCC1CN(C(=O)c2ccc(C(=O)N3CC(CCCC)[C@H](C(=O)N[C@H]4C[C@@H]4c4ccccc4)C3)cc2)CC1C(=O)N[C@H]1C[C@@H]1c1ccccc1 (stereo not given in full)

EC50 [5]: 0.702 µM
SMILES: CC(C)C1CN(C(=O)c2ccc(C(=O)N3C[C@@H](C(=O)N[C@H]4C[C@@H]4c4ccccc4)[C@H](C(=O)N[C@H]4C[C@@H]4c4ccccc4)C3)cc2)CC1C(=O)N[C@H]1C[C@@H]1c1ccccc1 (stereo not given in full)

EC50 [5]: > 5 µM
SMILES: CCCC1CN(C(=O)c2ccc(C(=O)N3CC(CCC)[C@H](C(=O)N[C@H]4C[C@@H]4c4ccccc4)C3)cc2)CC1C(=O)N[C@H]1C[C@@H]1c1ccccc1 (stereo not given in full)

EC50 [5]: 0.039 µM
Activity [9]: Active
Activity [10]: inactive
Activity [11]: inactive
SMILES: CCCC[C@@H]1CN(C(=O)c2ccc(C(=O)N3C[C@@H](C(=O)N[C@H]4C[C@@H]4c4ccccc4)[C@H](C(=O)N[C@H]4C[C@@H]4c4ccccc4)C3)cc2)C[C@H]1C(=O)N[C@H]1C[C@@H]1c1ccccc1
Activity [1]: Non-Toxic
Activity [2]: Dose-Dependent Effect
Activity [3]: Non-Toxic
Activity [4]: Active
Activity [6]: Dose-Dependent Effect
Activity [7]: Dose-Dependent Effect
Activity [8]: Active
Activity [12]: Active
Activity [13]: Tde

EC50 [5]: > 5 µM
SMILES: CCC1CN(C(=O)c2ccc(C(=O)N3CC(CC)[C@H](C(=O)N[C@H]4C[C@@H]4c4ccccc4)C3)cc2)CC1C(=O)N[C@H]1C[C@@H]1c1ccccc1 (stereo not given in full)

EC50 [5]: > 5 µM
SMILES: CC(C)C1CN(C(=O)c2ccc(C(=O)N3CC(C(C)C)[C@H](C(=O)N[C@H]4C[C@@H]4c4ccccc4)C3)cc2)CC1C(=O)N[C@H]1C[C@@H]1c1ccccc1 (stereo not given in full)

EC50 [5]: > 5 µM
SMILES: O=C(N[C@H]1C[C@@H]1c1ccccc1)C1CN(C(=O)c2ccc(C(=O)N3C[C@@H](C(=O)N[C@H]4C[C@@H]4c4ccccc4)[C@H](C(=O)N[C@H]4C[C@@H]4c4ccccc4)C3)cc2)CC1CF (stereo not given in full)

EC50 [5]: > 5 µM
SMILES: O=C(N[C@H]1C[C@@H]1c1ccccc1)[C@H]1CCN(C(=O)c2ccc(C(=O)N3C[C@@H](C(=O)N[C@H]4C[C@@H]4c4ccccc4)[C@H](C(=O)N[C@H]4C[C@@H]4c4ccccc4)C3)cc2)C1

EC50 [5]: 0.514 µM
SMILES: CCC1CN(C(=O)c2ccc(C(=O)N3C[C@@H](C(=O)N[C@H]4C[C@@H]4c4ccccc4)[C@H](C(=O)N[C@H]4C[C@@H]4c4ccccc4)C3)cc2)CC1C(=O)N[C@H]1C[C@@H]1c1ccccc1 (stereo not given in full)

EC50 [5]: > 5 µM
SMILES: O=C(N[C@H]1C[C@@H]1c1ccccc1)C1CN(C(=O)c2ccc(C(=O)N3C[C@@H](C(=O)N[C@H]4C[C@@H]4c4ccccc4)[C@H](C(=O)N[C@H]4C[C@@H]4c4ccccc4)C3)cc2)CC1CO (stereo not given in full)

EC50 [5]: 0.177 µM
SMILES: CCC[C@@H]1CN(C(=O)c2ccc(C(=O)N3C[C@@H](C(=O)N[C@H]4C[C@@H]4c4ccccc4)[C@H](C(=O)N[C@H]4C[C@@H]4c4ccccc4)C3)cc2)C[C@H]1C(=O)N[C@H]1C[C@@H]1c1ccccc1

EC50 [5]: 0.107 µM
SMILES: CCCC1CN(C(=O)c2ccc(C(=O)N3C[C@@H](C(=O)N[C@H]4C[C@@H]4c4ccccc4)[C@H](C(=O)N[C@H]4C[C@@H]4c4ccccc4)C3)cc2)CC1C(=O)N[C@H]1C[C@@H]1c1ccccc1 (stereo not given in full)

EC50 [5]: 0.037 µM
SMILES: CCCCC1CN(C(=O)c2ccc(C(=O)N3C[C@@H](C(=O)N[C@H]4C[C@@H]4c4ccccc4)[C@H](C(=O)N[C@H]4C[C@@H]4c4ccccc4)C3)cc2)CC1C(=O)N[C@H]1C[C@@H]1c1ccccc1 (stereo not given in full)

EC50 [5]: > 5 µM
SMILES: O=C(N[C@H]1C[C@@H]1c1ccccc1)C1CN(C(=O)c2ccc(C(=O)N3C[C@@H](C(=O)N[C@H]4C[C@@H]4c4ccccc4)[C@H](C(=O)N[C@H]4C[C@@H]4c4ccccc4)C3)cc2)C1
